Assays:
T. gondii tachyzoites = assay: [3H]-uracil uptake assay of parasite growth inhibition in infected HFF cell monolayers; format: cell-based, Toxoplasma gondii; conditions: infected HFF cell monolayers, 36-48 hours; read-out: IC50 against T. gondii in the uracil uptake assay
Source text: Host cells and parasite cultures—RH strain or RH ΔHXGPRT strain tachyzoites of T. gondii were maintained by serial passage in confluent monolayers of human foreskin fibroblasts (“HFF”) as described (Roos, D. S. et al., 1994, Methods Cell Biol. 45:27-63). A modified [^3H]-uracil uptake assay (Pfefferkorn, E. R. and Pfefferkorn, L. C., 1977, J. Protozool. 24:449-453) adapted for use in 96-well scintillation plates (Cytostar-T, Amersham; Piscataway, N.J.) was used to measure parasite growth inhibition. Each well, previously seeded with HFF cells, was inoculated with T. gondii tachyzoites (2×10^4) in 200 μl of growth media containing 2 μCi [5,6]-^3H-uracil (Perkin-Elmer NEN; Boston, Mass.) and serially diluted compound. Following incubation at 37° C. for 36-48 hours, tritium-incorporation into host cell monolayers was directly counted in a microplate scintillation counter (MicroBeta, PerkinElmer-Wallac).

TgCDPK1 = biological target: T1, TgCDPK1 (Toxoplasma gondii, UniProt Q9BJF5); assay: CDPK assay with Syntide-2, T. gondii CDPK1; format: biochemical; conditions: 0.2 μM hymenialdisine or 1 μM purvalanol B; CKI phosphopeptide substrate
T1 construct: The TgCDPK1 open reading frame was amplified by PCR from a Toxoplasma cDNA library; made in house
T1 sequence (Q9BJF5 entry or part of it): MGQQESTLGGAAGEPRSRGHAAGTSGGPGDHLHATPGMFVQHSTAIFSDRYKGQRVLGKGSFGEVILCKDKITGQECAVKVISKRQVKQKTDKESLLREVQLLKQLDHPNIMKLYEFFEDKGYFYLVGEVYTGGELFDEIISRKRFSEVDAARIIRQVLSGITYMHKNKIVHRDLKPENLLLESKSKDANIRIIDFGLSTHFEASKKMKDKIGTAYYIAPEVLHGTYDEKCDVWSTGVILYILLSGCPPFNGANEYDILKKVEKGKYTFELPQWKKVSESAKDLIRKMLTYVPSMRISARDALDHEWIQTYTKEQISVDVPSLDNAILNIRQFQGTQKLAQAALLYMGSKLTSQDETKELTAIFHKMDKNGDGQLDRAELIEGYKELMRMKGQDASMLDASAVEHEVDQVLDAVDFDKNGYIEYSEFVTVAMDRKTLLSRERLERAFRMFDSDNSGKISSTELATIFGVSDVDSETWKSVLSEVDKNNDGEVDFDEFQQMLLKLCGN
Method: (§1) Protein kinase assays—Casein kinase activity was assayed essentially as described (Donald, R. G. K. et al., 2002, supra) using 96-well phosphocellulose plates (MAPH-NOB, Millipore; Billerica, Mass.) to capture ^33P-phosphorylated peptide or casein substrates. Kinase reactions were carried out in 40 μl volumes containing 25 mM Hepes, pH 7.4, 10 mM MgCl2, 20 mM β-glycerophosphate, 1 mM DTT, 250 μM substrate, 1 mg/mL BSA, 2 μM ATP, and 0.01 μM [γ-^33P]ATP (Perkin-Elmer, 3000 Ci/mmol). The reactions were initiated by the addition of enzyme and incubated at room temperature for 60 min. Casein (5% solution), partially dephosphorylated α-casein and β-casein were obtained from Sigma.
(§2) A variety of commercially available peptide substrates were evaluated. From Calbiochem (San Diego, Calif.): CKI substrate (RRKDLHDDEEDEAMSITA; SEQ ID NO:13); CKII substrate (RRADDSDDDDD; SEQ ID NO:14); Syntide-2 substrate (PLARTLSVAGLPGKK; SEQ ID NO:15); CaM kinase II substrate (281-291) (MHKNETVECLK; SEQ ID NO:16). From Promega: CKI substrate (DDDEESITRR; SEQ ID NO:17) and kemptide (LRRASLG; SEQ ID NO:18). From New England Biolabs (Beverly, Mass.): CKI phosphopeptide substrate (KRRRALS(p)VASLPGL; SEQ ID NO:19), and CKII substrate (RRREEETEEE; SEQ ID NO:20). PKG assays were performed with kemptide as substrate and 10 μM cGMP. CDPK was assayed with Syntide-2 substrate and in the presence of 100 μM CaCl2.
Purification of recombinant TgCDPK1 and TgPKG—The TgCDPK1 open reading frame was amplified by PCR from a Toxoplasma cDNA library, using primers based on the published sequence (Kieschnick et al., 2001, supra): sense primer, […] (SEQ ID NO:44); and, antisense primer, […] (SEQ ID NO:45). A C-terminal FLAG epitope tag was appended to the TgCDPK1 open reading frame by an additional round of PCR amplification (KOD polymerase) and the resulting DNA fragment was sub-cloned into a tubulin promoter expression vector (Donald and Liberator, 2002, supra). […]

EtCKIα = EtCKIα (Eimeria tenella, UniProt Q6QNL9); assay: Casein kinase assay, partially purified native EtCKIα; format: biochemical; conditions: native enzyme
Chain of EtCKIα (Q6QNL9 whole entry): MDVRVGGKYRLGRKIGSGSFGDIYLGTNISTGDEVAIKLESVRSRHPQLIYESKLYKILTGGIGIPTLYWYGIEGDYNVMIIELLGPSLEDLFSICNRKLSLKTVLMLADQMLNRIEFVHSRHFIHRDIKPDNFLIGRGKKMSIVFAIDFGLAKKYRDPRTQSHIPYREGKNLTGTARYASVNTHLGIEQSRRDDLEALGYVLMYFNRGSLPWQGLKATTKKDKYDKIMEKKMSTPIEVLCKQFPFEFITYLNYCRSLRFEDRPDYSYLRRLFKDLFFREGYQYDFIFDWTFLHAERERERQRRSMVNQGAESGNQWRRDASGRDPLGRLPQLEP
Method: as §1, §2
Partial purification of native EtCKIα—The inability to stably express recombinant EtCKIα in T. gondii provided impetus to purify native enzyme from E. tenella parasites (slide 5). A lysate was prepared from 2×10^10 unsporulated oocysts using previously published procedures (Gurnett, A. M. et al., 2002, supra). The first two steps of the purification scheme used were essentially scaled-up from the method described for the purification of native TgCKIα. The lysate was subjected to preparative HiLoad Q anion-exchange chromatography and fractions eluted with a NaCl gradient (0-1 M NaCl). […]

CC(C)[C@H](CO)Nc1nc(Nc2ccc(C(=O)O)c(Cl)c2)c2ncn(C(C)C)c2n1 [purvalanol B]
IC50 (T. gondii tachyzoites): 260 nM | sensitivity of phosphopeptide kinase activity of fractions 14 and 15 (TgCDPK1) (TgCDPK1): partial sensitivity | activity against / sensitivity of EtCKIα (EtCKIα): good activity

Source: patent US7671181B2, “Polynucleotides encoding coccidian parasite casein kinase I, a chemotherapeutic target for antiprotozoal agents” (Merck Sharp & Dohme Corp., priority 2004, dated 2010)
